Series [1] in a line: Selectivity index, ratio of CC50 for cytotoxicity against human HeLa CCL2 cells to EC50 for antiviral activity against CHIKV 122508 infected in human HeLa CCL2 cells. The class given is toxicity, cell-based. The note with it: read-out: Ratio CC50/EC50.
Series [2] is described as follows: Cytotoxicity against human HeLa CCL2 cells assessed as reduction in cell viability measured after 24 hrs by Alamar blue assay. Type of series: functional.
Series [3] has as its system Chikungunya virus. The series can be described thus: Antiviral activity against CHIKV 122508 infected in […] BHK-21 cells assessed as reduction in viral titer at MOI of 1 measured after 24 hpi by viral plaque assay. Type of series: functional, organism-based. The settings on record: Chikungunya virus, 122508, BHK-21.

The structures appear in SMILES notation.

On to `C=C1CC[C@H]2C(C)(C)CCC[C@]2(C)[C@H]1C/C=C1\C(=O)Nc2ccc(Cl)cc21`, for which the selectivity ratio in series [1] came to 4.5. Moreover, the CC50 in series [2] is 18.3 µM. Besides, the half-maximal effective concentration (EC50) in series [3] worked out at 4.1 µM.

Take `C=C1CC[C@@H]2[C@](C)(CO)[C@H](O)CC[C@@]2(C)[C@@H]1C/C=C1/C(=O)N(C(C)=O)c2ccccc21`: in series [2], the CC50 was more than 100 µM.

With `C=C1CC[C@@H]2[C@](C)(CO)[C@H](O)CC[C@@]2(C)[C@@H]1C/C=C1\C(=O)N(C)c2ccccc21`, the CC50 in series [2] is more than 100 µM.

With `C=C1CC[C@H]2C(C)(C)CCC[C@]2(C)[C@H]1C/C=C1/C(=O)NC(=O)c2ccccc21`, the selectivity ratio in series [1] is 15. For the same compound, the CC50 in series [2] was determined as 50.5 µM. Besides, the EC50 in series [3] was 3.46 µM.

With `C=C1CC[C@@H]2[C@](C)(CO)[C@H](O)CC[C@@]2(C)[C@@H]1C/C=C1\C(=O)N(C(C)=O)c2ccccc21`, the CC50 in series [2] is more than 100 µM.

Regarding `C=C1CC[C@H]2C(C)(C)CCC[C@]2(C)[C@H]1C/C=C1\C(=O)Nc2cc(F)ccc21`, the selectivity ratio in series [1] was determined as 67. In series [2], the CC50 amounted to 14.2 µM. Also, in series [3], the EC50 was 0.21 µM.

With `C=C1CC[C@H]2C(C)(C)CCC[C@]2(C)[C@H]1C/C=C1/C(=O)Nc2c(Br)cccc21`, in series [1], the selectivity ratio is more than 79. For the same compound, the CC50 in series [2] is more than 100 µM. For the same compound, the EC50 in series [3] turned out to be 1.27 µM.

For `CC1=CC[C@H]2C(C)(C)CCC[C@]2(C)[C@H]1C/C=C1/C(=O)Nc2c(Cl)cccc21`, the selectivity ratio in series [1] was found to be 1.5. Also, in series [2], the CC50 is more than 100 µM. The EC50 in series [3] worked out at 6.56 µM.

As for `CC1=CC[C@H]2C(C)(C)CCC[C@]2(C)[C@H]1C/C=C1\C(=O)Nc2c(Cl)cccc21`, the selectivity ratio in series [1] stood at 21. Further, the 50% cytotoxic concentration (CC50) in series [2] is 194 µM. The EC50 in series [3] worked out at 9.35 µM.

`C=C1CC[C@H]2C(C)(C)CCC[C@]2(C)[C@H]1C/C=C1\C(=O)Nc2cccc(C)c21`: the selectivity ratio in series [1] is 69. Further, the CC50 in series [2] is 49.9 µM. The EC50 in series [3] turned out to be 0.72 µM.

Turning to `CC1=CC[C@H]2C(C)(C)CCC[C@]2(C)[C@H]1C/C=C1/C(=O)Nc2ccccc21`, the selectivity ratio in series [1] worked out at 5.8. The CC50 in series [2] was 18.6 µM. In addition, the EC50 in series [3] stood at 3.22 µM.

Regarding `C=C1CC[C@H]2C(C)(C)CCC[C@]2(C)[C@H]1C/C=C1/C(=O)Nc2cc(F)ccc21`, in series [1], the selectivity ratio was found to be 20. Further, the CC50 in series [2] is 9 µM. For the same compound, the EC50 in series [3] was found to be 0.46 µM.

Regarding `C=C1CC[C@H]2C(C)(C)CCC[C@]2(C)[C@H]1C/C=C1\C(=O)Nc2cc(C)ccc21`, the selectivity ratio in series [1] was 3.2. Further, the 50% cytotoxic concentration (CC50) in series [2] stood at 37.2 µM. Further, the EC50 in series [3] worked out at 11.6 µM.

As for `C=C1[C@H](O)C[C@H]2C(C)(C)CCC[C@]2(C)[C@H]1C/C=C1/C(=O)Nc2ccccc21`, in series [1], the selectivity ratio came out at 12. In series [2], the CC50 amounted to 15 µM. Besides, in series [3], the EC50 amounted to 1.29 µM.

As to `C=C1CC[C@H]2C(C)(C)CCC[C@]2(C)[C@H]1C/C=C1\C(=O)Nc2cccc(Cl)c21`, the selectivity ratio in series [1] is 6.8. In addition, in series [2], the CC50 was 37.2 µM. For the same compound, the EC50 in series [3] amounted to 5.4 µM.

On to `C=C1CC[C@H]2C(C)(C)CCC[C@]2(C)[C@H]1C/C=C1/C(=O)Nc2ccc(Cl)cc21`, for which, in series [1], the selectivity ratio worked out at 27. The CC50 in series [2] was determined as 36.1 µM. Besides, the half-maximal effective concentration (EC50) in series [3] was 1.3 µM.

As to `C=C1CC[C@@H]2[C@](C)(CO)[C@H](O)CC[C@@]2(C)[C@@H]1C/C=C1\SC(=S)NC1=O`, the CC50 in series [2] was more than 100 µM.

With `C=C1CC[C@@H]2[C@](C)(CO)[C@H](O)CC[C@@]2(C)[C@@H]1C/C=C1/C(=O)N(C)c2ccccc21`, the CC50 in series [2] is more than 100 µM.

With `C=C1CC[C@H]2C(C)(C)CCC[C@]2(C)[C@H]1C/C=C1\C(=O)Nc2cc(Cl)ccc21`, the CC50 in series [2] is 15.6 µM.

With `C=C1CC[C@H]2C(C)(C)CCC[C@]2(C)[C@H]1C/C=C1\C(=O)Nc2cccc(Br)c21`, the selectivity ratio in series [1] was 62. The CC50 in series [2] amounted to 27.1 µM. The half-maximal effective concentration (EC50) in series [3] came to 0.44 µM.

In the case of `C=C1CC[C@H]2C(C)(C)CCC[C@]2(C)[C@H]1C/C=C1\C(=O)Nc2ccc(C(F)(F)F)cc21`, the selectivity ratio in series [1] was more than 6.1. In series [2], the CC50 is more than 16.2 µM. In addition, the EC50 in series [3] came out at 2.63 µM.

Consider `C=C1[C@H](O)C[C@H]2C(C)(C)CCC[C@]2(C)[C@H]1C/C=C1\C(=O)Nc2ccccc21`, for which the selectivity ratio in series [1] was determined as 14. In series [2], the CC50 stood at 20 µM. In addition, in series [3], the EC50 was 1.41 µM.

With `C=C1CC[C@H]2C(C)(C)CCC[C@]2(C)[C@H]1C/C=C1\C(=O)Nc2c(Cl)cccc21`, the selectivity ratio in series [1] came out at 5.7. Also, in series [2], the CC50 was found to be 59.7 µM. Moreover, in series [3], the EC50 is 10.5 µM.

On to `C=C1CC[C@@H]2[C@](C)(COC(C)=O)[C@H](OC(C)=O)CC[C@@]2(C)[C@@H]1C/C=C1/C(=O)Nc2ccccc21`, for which, in series [1], the selectivity ratio is more than 14. The CC50 in series [2] was more than 100 µM. Moreover, the EC50 in series [3] is 7.4 µM.

With `C=C1CC[C@H]2C(C)(C)CCC[C@]2(C)[C@H]1C/C=C1/C(=O)Nc2ccc(Br)cc21`, the selectivity ratio in series [1] was 10. Further, the CC50 in series [2] worked out at 77.2 µM. The EC50 in series [3] is 7.4 µM.

Turning to `C=C1CC[C@H]2C(C)(C)CCC[C@]2(C)[C@H]1C/C=C1/C(=O)Nc2ccccc21`, in series [1], the selectivity ratio was 15. Also, the CC50 in series [2] worked out at 41.6 µM. The EC50 in series [3] was 2.8 µM.

Consider `C=C1CC[C@H]2C(C)(C)CCC[C@]2(C)[C@H]1C/C=C1/C(=O)Nc2cc(Br)ccc21`, for which the CC50 in series [2] was determined as 8.3 µM.

As for `C=C1CC[C@H]2C(C)(C)CCC[C@]2(C)[C@H]1C/C=C1/C(=O)Nc2cc(Cl)ccc21`, the CC50 in series [2] is 5.7 µM.

On to `C=C1CC[C@H]2C(C)(C)CCC[C@]2(C)[C@H]1C/C=C1/C(=O)Nc2ccc(C(F)(F)F)cc21`, for which, in series [2], the CC50 came out at 6.66 µM.

Turning to `C=C1CC[C@H]2C(C)(C)CCC[C@]2(C)[C@H]1C/C=C1\C(=O)Nc2c1cccc2C(F)(F)F`, the selectivity ratio in series [1] is more than 11. For the same compound, the CC50 in series [2] was more than 100 µM. The EC50 in series [3] is 8.77 µM.

For the compound `C=C1CC[C@H]2C(C)(C)CCC[C@]2(C)[C@H]1C/C=C1\C(=O)Nc2cc(Br)ccc21`, the selectivity ratio in series [1] was determined as 2.6. Moreover, the CC50 in series [2] was determined as 19.6 µM. Also, in series [3], the EC50 was found to be 7.5 µM.

Regarding `C=C1CC[C@H]2C(C)(C)CCC[C@]2(C)[C@H]1C/C=C1\C(=O)Nc2ccc(Br)cc21`, the selectivity ratio in series [1] amounted to 11. In addition, the CC50 in series [2] came out at 20.6 µM. In addition, the concentration giving a half-maximal response (EC50) in series [3] is 1.8 µM.

Regarding `C=C1CC[C@H]2C(C)(C)CCC[C@]2(C)[C@H]1C/C=C1/C(=O)Nc2cc(C(F)(F)F)ccc21`, the selectivity ratio in series [1] worked out at 10. For the same compound, the CC50 in series [2] worked out at 77.2 µM. For the same compound, in series [3], the EC50 was 7.41 µM.

Consider `C=C1CC[C@H]2C(C)(C)CCC[C@]2(C)[C@H]1C/C=C1\C(=O)Nc2cc(C(F)(F)F)ccc21`, for which the selectivity ratio in series [1] was 17. Further, in series [2], the CC50 is 52.8 µM. Moreover, the concentration for a half-maximal effect (EC50) in series [3] is 3.07 µM.

As to `C=C1CC[C@H]2C(C)(C)CCC[C@]2(C)[C@H]1C/C=C1/C(=O)Nc2c1cccc2C(F)(F)F`, the selectivity ratio in series [1] is more than 61. Also, the CC50 in series [2] is more than 100 µM. Moreover, the EC50 in series [3] is 1.64 µM.

With `C=C1CC[C@@H]2[C@](C)(CO)[C@H](O)CC[C@@]2(C)[C@@H]1CCC1C(=O)Nc2ccccc21` (stereo partly drawn), the CC50 in series [2] is more than 100 µM.
